What was measured:
[1] = target: T1, ATAD2A (Homo sapiens, UniProt Q6PL18); assay: BROMOscan BromoKdMAX; format: binding
T1 construct: T7 phage strains displaying bromodomains were grown in parallel; purchased DiscoverX; host or cells: T7 phage in E. coli host derived from BL21
Procedure: (§1) A BromoKdMAX was performed at DiscoverX.
(§2) The assay principle is the following: BROMOscan™ is a novel industry leading platform for identifying small molecule bromodomain inhibitors. Based on proven KINOMEscan™ technology, BRO-MOscan™ employs a proprietary ligand binding site-directed competition assay to quantitatively measure interactions between test compounds and bromodomains. This robust and reliable assay panel is suitable for high throughput screening and delivers quantitative ligand binding data to facilitate the identification and optimization of potent and selective small molecule bromodomain inhibitors.
(§3) The assay was conducted as follows: For the Bromodomain assays, T7 phage strains displaying bromodomains were grown in parallel in 24-well blocks in an E. coli host derived from the BL21 strain. E. coli were grown to log-phase and infected with T7 phage from a frozen stock (multiplicity of infection=0.4) and incubated with shaking at 32° C. until lysis (90-150 minutes). The lysates were centrifuged (5,000×g) and filtered (0.2 μm) to remove cell debris. […] The liganded beads were blocked with excess biotin and washed with blocking buffer (SeaBlock (Pierce), 1% BSA, 0.05% Tween 20, 1 mM DTT) to remove unbound ligand and to reduce non-specific phage binding. […] Test compounds were prepared as 1000× stocks in 100% DMSO. Kds were determined using an 11-point 3-fold compound dilution series with one DMSO control point. […] The compounds were then diluted directly into the assays such that the final concentration of DMSO was 0.09%. All reactions performed in polypropylene 384-well plates. Each was a final volume of 0.02 ml. […] The bromodomain concentration in the eluates was measured by qPCR.

[2] = target: T2, ATAD2B (Homo sapiens, UniProt Q9ULI0); assay: BROMOscan BromoKdMAX; format: binding
T2 construct: T7 phage strains displaying bromodomains were grown in parallel; purchased DiscoverX; host or cells: T7 phage in E. coli host derived from BL21
T2 sequence (Q9ULI0 951-1066 limits assumed): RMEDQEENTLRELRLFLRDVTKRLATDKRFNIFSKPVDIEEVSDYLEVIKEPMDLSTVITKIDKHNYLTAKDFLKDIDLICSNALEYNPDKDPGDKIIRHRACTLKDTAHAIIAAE
Procedure: as §1, §2, §3

[3] = target: T3, BAZ2A (Homo sapiens, UniProt Q9UIF9); assay: BROMOscan BromoKdMAX; format: binding
T3 construct: T7 phage strains displaying bromodomains were grown in parallel; purchased DiscoverX; host or cells: T7 phage in E. coli host derived from BL21
T3 sequence (Q9UIF9 1793-1897 limits assumed): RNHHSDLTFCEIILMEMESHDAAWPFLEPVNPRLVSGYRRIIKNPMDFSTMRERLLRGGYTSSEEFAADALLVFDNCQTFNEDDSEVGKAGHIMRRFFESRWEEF
Procedure: as §1, §2, §3

[4] = target: T4, BRD1 (Homo sapiens, UniProt O95696); assay: BROMOscan BromoKdMAX; format: binding
T4 construct: T7 phage strains displaying bromodomains were grown in parallel; purchased DiscoverX; host or cells: T7 phage in E. coli host derived from BL21
T4 sequence (O95696 562-666 limits assumed): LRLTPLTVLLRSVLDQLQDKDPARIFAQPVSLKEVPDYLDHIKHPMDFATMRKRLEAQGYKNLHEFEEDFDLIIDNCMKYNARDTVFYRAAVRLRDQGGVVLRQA
Procedure: as §1, §2, §3

[5] = target: T5, BRPF3 (Homo sapiens, UniProt Q9ULD4); assay: BROMOscan BromoKdMAX; format: binding
T5 construct: T7 phage strains displaying bromodomains were grown in parallel; purchased DiscoverX; host or cells: T7 phage in E. coli host derived from BL21
T5 sequence (Q9ULD4 589-693 limits assumed): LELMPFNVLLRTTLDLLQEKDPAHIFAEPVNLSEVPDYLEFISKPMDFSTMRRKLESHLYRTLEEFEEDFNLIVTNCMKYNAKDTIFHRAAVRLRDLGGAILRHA
Procedure: as §1, §2, §3

[6] = target: T6, FALZ (Homo sapiens, UniProt Q12830); assay: BROMOscan BromoKdMAX; format: binding
T6 construct: T7 phage strains displaying bromodomains were grown in parallel; purchased DiscoverX (BROMOscan / BromoKdMAX service); host or cells: T7 phage in E. coli host derived from BL21
Procedure: as §1, §2, §3

[7] = target: T7, GCN5L2 (Homo sapiens, UniProt Q92830); assay: BROMOscan BromoKdMAX; format: binding
T7 construct: T7 phage strains displaying bromodomains were grown in parallel; purchased DiscoverX (BROMOscan / BromoKdMAX service); host or cells: T7 phage in E. coli host derived from BL21
T7 sequence (Q92830 728-832 limits assumed): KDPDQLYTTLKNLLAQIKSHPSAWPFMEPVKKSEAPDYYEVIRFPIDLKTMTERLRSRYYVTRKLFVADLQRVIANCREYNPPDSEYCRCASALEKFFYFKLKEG
Procedure: as §1, §2, §3

[8] = target: T8, PBRM1(2) (Homo sapiens, UniProt Q86U86); assay: BROMOscan BromoKdMAX; format: binding
T8 construct: T7 phage strains displaying bromodomains were grown in parallel; purchased DiscoverX (BROMOscan / BromoKdMAX service); host or cells: T7 phage in E. coli host derived from BL21
T8 sequence (Q86U86 177-287 limits assumed): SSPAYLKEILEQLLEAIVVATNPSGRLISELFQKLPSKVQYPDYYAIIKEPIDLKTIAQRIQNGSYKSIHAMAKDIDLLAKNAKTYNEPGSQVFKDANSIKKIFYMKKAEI
Procedure: as §1, §2, §3

[9] = target: T9, PBRM1(5) (Homo sapiens, UniProt Q86U86); assay: BROMOscan BromoKdMAX; format: binding
T9 construct: T7 phage strains displaying bromodomains were grown in parallel; purchased DiscoverX (BROMOscan / BromoKdMAX service); host or cells: T7 phage in E. coli host derived from BL21
T9 sequence (Q86U86 653-763 limits assumed): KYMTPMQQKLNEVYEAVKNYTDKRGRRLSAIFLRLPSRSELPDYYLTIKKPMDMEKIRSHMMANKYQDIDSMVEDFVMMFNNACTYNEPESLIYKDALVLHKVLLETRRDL
Procedure: as §1, §2, §3

[10] = target: T10, SMARCA4 (Homo sapiens, UniProt P51532); assay: BROMOscan BromoKdMAX; format: binding
T10 construct: T7 phage strains displaying bromodomains were grown in parallel; purchased DiscoverX (BROMOscan / BromoKdMAX service); host or cells: T7 phage in E. coli host derived from BL21
T10 sequence (P51532 1453-1564 limits assumed): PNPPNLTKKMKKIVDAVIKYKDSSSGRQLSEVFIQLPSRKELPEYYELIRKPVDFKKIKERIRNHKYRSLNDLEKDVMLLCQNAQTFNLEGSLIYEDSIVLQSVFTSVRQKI
Procedure: as §1, §2, §3

[11] = target: T11, TRIM33(PHD, Bromo.) (Homo sapiens, UniProt Q9UPN9); assay: BROMOscan BromoKdMAX; format: binding
T11 construct: TRIM33(PHD, Bromo.)
T11 sequence (Q9UPN9 whole entry): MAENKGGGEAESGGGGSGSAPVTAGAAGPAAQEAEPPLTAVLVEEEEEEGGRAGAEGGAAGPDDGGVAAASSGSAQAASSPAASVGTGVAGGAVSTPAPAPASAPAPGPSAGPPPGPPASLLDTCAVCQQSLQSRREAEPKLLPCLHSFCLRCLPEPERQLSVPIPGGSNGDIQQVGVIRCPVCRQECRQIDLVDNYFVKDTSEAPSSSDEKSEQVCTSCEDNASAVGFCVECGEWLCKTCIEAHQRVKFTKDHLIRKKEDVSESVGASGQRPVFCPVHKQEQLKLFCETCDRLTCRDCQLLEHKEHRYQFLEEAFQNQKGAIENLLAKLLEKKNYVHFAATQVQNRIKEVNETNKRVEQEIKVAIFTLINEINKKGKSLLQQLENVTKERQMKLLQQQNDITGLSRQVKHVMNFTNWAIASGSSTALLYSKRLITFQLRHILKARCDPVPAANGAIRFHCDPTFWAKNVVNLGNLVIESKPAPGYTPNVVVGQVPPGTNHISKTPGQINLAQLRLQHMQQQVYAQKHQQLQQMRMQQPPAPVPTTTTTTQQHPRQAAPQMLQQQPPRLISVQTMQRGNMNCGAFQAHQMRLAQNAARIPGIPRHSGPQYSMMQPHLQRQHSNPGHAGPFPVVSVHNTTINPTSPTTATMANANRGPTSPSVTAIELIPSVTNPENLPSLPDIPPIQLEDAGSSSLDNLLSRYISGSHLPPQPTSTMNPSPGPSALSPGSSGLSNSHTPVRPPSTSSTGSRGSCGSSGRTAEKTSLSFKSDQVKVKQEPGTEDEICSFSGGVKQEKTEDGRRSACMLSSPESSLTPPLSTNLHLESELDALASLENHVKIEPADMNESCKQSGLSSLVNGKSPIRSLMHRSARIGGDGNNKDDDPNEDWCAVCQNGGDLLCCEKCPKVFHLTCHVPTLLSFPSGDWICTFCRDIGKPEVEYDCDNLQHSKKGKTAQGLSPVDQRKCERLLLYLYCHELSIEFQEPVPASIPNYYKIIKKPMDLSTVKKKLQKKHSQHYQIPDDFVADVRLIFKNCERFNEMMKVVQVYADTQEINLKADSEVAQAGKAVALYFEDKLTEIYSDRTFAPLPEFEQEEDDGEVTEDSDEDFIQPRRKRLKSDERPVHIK
Procedure: as §1, §2, §3

[12] = test system: HCC827 cells; assay: Gene expression analysis (qPCR of ALPP and HOPX); format: cell-based; conditions: HCC827, 1 μM CBP/p300 inhibitor in presence of Gefitinib, 24 h
Procedure: (§4) Equal amount of cDNA was then subjected to qPCR analysis using the Kapa SYBR fast kit (KK4611) in a 384 well format in a Roche Light Cycler 480. Gene expression of genes was evaluated by subtraction of housekeeping gene CT-values (b-Actin) from CT of the genes of interest, and by calculating the ΔΔCT by subtracting the DMSO control value from sample of interest to finally calculate fold change differences of treated versus control treated sample.
(§5) Data is from 2 independent experiments with qPCRs in duplicate (mean±SEM) (FIG. 1C-D).

[13] = test system: NCI-H1975 cells; assay: Gene expression analysis (qPCR of ALPP and HOPX); format: cell-based; conditions: NCI-H1975, 1 μM CBP/p300 inhibitor in presence of 20 nM osimertinib, 24 h
Procedure: as §4, §5

[14] = test system: HCC827 cells; assay: Cell counting by nuclear fluorescent staining (Hoechst33342); format: cell-based
Procedure: Several plates were seeded, as for each time point of cell counting one plate was fixed and stained for analysis. […] Cell cultivation was continued until time of fixation and analysis for each plate. For extended time-points, medium and drugs were replenished twice weekly.
At the given time plates were washed 3 times with PBS and cells fixed with 80 μl 4% PFA for 10 min, RT. After 3 wash steps with PBS cells were stained with 10 μg/ml Hoechst33342 (Thermo Scientific H12492) in 100 μl PBS for 2 h, RT, dark. After 3× PBS washing-steps, Hoechst33342 signals were acquired on in an automated imaging mode using a Zeiss Apotome with motorized X/Y stage and a 5× objective. Image analysis and determination of Hoechst33342 spots (nuclei) was done using ImageJ. Number of nuclei was plotted as function of time using GraphPad Prism.

T1 sequence (Q6PL18 980-1092 limits assumed): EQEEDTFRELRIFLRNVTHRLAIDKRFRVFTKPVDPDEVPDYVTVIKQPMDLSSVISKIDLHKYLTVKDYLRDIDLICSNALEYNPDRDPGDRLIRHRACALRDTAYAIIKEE

Kd [1]: > 10 µM
Kd [2]: > 10 µM
Kd [3]: > 10 µM
Kd [4]: > 10 µM
Kd [5]: > 10 µM
Kd [6]: 5.5 µM
Kd [7]: > 10 µM
Kd [8]: > 10 µM
Kd [9]: 3.1 µM
Kd [10]: > 10 µM
Kd [11]: > 10 µM
Structure (SMILES): CO[C@H]1CC[C@H](n2c([C@@H]3CCCC(=O)N3c3ccc(F)c(F)c3)nc3cc(-c4c(C)noc4C)ccc32)CC1 [CCS1477]
EGFR inhibitor induced gene expression (ALPP, HOPX) [12]: reverse EGFR inhibitor induced gene expression
EGFR inhibitor induced gene expression (ALPP, HOPX) [13]: reverse EGFR inhibitor induced gene expression
Effect on cell proliferation as single agent ([14]; absence of EGFR inhibitor (FIG. 3 left)): do not affect cell proliferation
Anti-proliferative activity / re-growth in presence of Gefitinib ([14]; in presence of 300 nM Gefitinib (FIG. 3)): potentiate the effect of the EGFR inhibitor

Source: patent US20230255966A1, “A COMBINATION OF A CBP/P300 BROMODOMAIN INHIBITOR AND AN EGFR INHIBITOR FOR USE IN TREATING EGFR-MUTANT NSCLC” (TOLREMO THERAPEUTICS AG, priority 2020, published 2023)
